Holding throughout (assay): NCI anticancer screen, dose series, 48 h
For experiment [1], the system named is SR leukemia.
The subject of experiment [2] is NCI-H226 lung.
The subject of experiment [3] is DU-145 prostate.
Experiment [4] deals with SK-MEL-5 melanoma.
For experiment [5], the system named is HCC-2998 colon.
Experiment [6] concerns SF-539 CNS.
For experiment [7], the system named is SNB-19 CNS.
The test system of experiment [8] is TK-10 renal.
The test system of experiment [9] is SF-295 CNS.

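Interpolation was linear, between the two tested concentrations surrounding the appropriate level; five concentrations were tested over 48 hours in 96-well plates. At the TGI there is no net growth.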

Take `Oc1cc(Br)cc2cc(Br)cnc12`: the TGI in [1] was 11 µM; in experiment [2] it was 86.5 µM; in experiment [3], 60.8 µM; in experiment [4], 31.7 µM; in experiment [5], 57.3 µM; in [6], greater than 100 µM. The TGI in experiment [7] is greater than 100 µM; in experiment [8], greater than 100 µM; in experiment [9] it was 28 µM.

Regarding `COc1ccc(N2C(=O)CSC2c2cc(OC)c(OC)c(OC)c2)cc1` (stereo not given), the TGI in experiment [1] is 51.3 µM; in experiment [2], greater than 100 µM; in experiment [3], 72.2 µM; in [4], 87.2 µM; in [5], 39.9 µM; in experiment [6] it was greater than 100 µM. The values for the TGI in [7], in [8] and in experiment [9] were 80.8 µM, greater than 100 µM and 71.9 µM, respectively.

As to `Cc1cccc(/C=N/NC(=S)NC(C)(C)C)n1`, the TGI in experiment [1], in experiment [2], in experiment [3], in experiment [4], in experiment [5] and in experiment [6] was greater than 100 µM in each case. Besides, the TGI in experiment [7], in [8] and in experiment [9] was greater than 100 µM in each case.

As for `Cc1cc2nnn(C3CCCO3)c2cc1C` (stereo not given), the TGI in [1], in experiment [2], in experiment [3], in [4], in experiment [5] and in [6] was greater than 100 µM throughout. The TGI in [8] and in experiment [9] was greater than 100 µM in each case.

Take `NC(=S)N1N=C(c2ccc3c(c2)CCC3)CC1c1ccccc1` (stereo not given): the TGI is 95.5 µM in [1]; greater than 100 µM in experiment [2]; 80.8 µM in [3]; 31.3 µM in experiment [4]; 36.8 µM in [5]; 43 µM in experiment [6]. Also, the TGI was greater than 100 µM in experiment [7], 87.1 µM in experiment [8] and 68.3 µM in experiment [9].

Regarding `C=CC(=O)N1C/C(=C\c2ccc(F)cc2)C(=O)/C(=C/c2ccc(F)cc2)C1`, the TGI was greater than 100 µM in experiment [1]; 8.78 µM in [2]; 13.5 µM in [3]; 3.35 µM in [4]; 1.15 µM in experiment [5]; 0.653 µM in experiment [6]. Further, the TGI in [7] is 3.72 µM; in experiment [8], 2.84 µM; in experiment [9], 1.2 µM.

On to `OCC(CO)CC1COc2ccccc2O1` (stereo not given), for which the TGI in [1], in experiment [2], in experiment [3], in experiment [4], in experiment [5] and in experiment [6] was greater than 10 µM throughout. Moreover, the TGI in experiment [7], in [8] and in experiment [9] was greater than 10 µM throughout.

As for `Cc1nc2ccccc2n1CCc1nc2ccccc2[nH]1`, the TGI in [1], in [2], in experiment [3], in [4], in experiment [5] and in [6] was greater than 100 µM in each case. The TGI in [7], in experiment [8] and in [9] was greater than 100 µM each time.

As to `O/N=C1/CCCCC1NO` (stereo not given), the TGI in [1], in experiment [2], in experiment [3], in experiment [4], in experiment [5] and in [6] was greater than 100 µM throughout. In addition, the TGI in experiment [7], in experiment [8] and in experiment [9] was greater than 100 µM throughout.

As for `Cc1ccc2c(=O)c3c(O)c4c(cc3n(C)c2c1)OC(C)(C)C=C4`, the TGI in experiment [1], in experiment [2], in [3], in experiment [4], in experiment [5] and in [6] was greater than 10 µM throughout. Further, the TGI in [7], in experiment [8] and in experiment [9] was greater than 10 µM in each case.

For `O=c1[nH]nc(Cc2ccc([N+](=O)[O-])cc2)[nH]1`, the TGI in experiment [1], in experiment [2], in experiment [3], in experiment [4], in experiment [5] and in experiment [6] was greater than 100 µM each time. For the same compound, the TGI in experiment [7], in experiment [8] and in experiment [9] was greater than 100 µM in each case.

As for `O=C(O)c1cc2c(cc1CC(Cc1ccccc1)C(=O)O)CCC2` (stereo not given), the TGI in experiment [1], in experiment [2], in experiment [3], in [4], in experiment [5] and in [6] was greater than 100 µM throughout. Besides, the TGI in [7], in experiment [8] and in [9] was greater than 100 µM throughout.

With `CCCNC(=O)Cn1c(-c2ccccc2)cc2ccccc21`, the TGI in experiment [1], in experiment [2], in [3], in experiment [4], in experiment [5] and in experiment [6] was greater than 100 µM each time. For the same compound, the TGI in experiment [7], in experiment [8] and in [9] was greater than 100 µM in each case.

Take `CC(CN(C)C)C(O)(c1ccccc1)c1ccccc1` (stereo not given): the TGI was greater than 100 µM in experiment [1]; greater than 100 µM in experiment [2]; greater than 100 µM in [3]; greater than 100 µM in experiment [4]; 93.2 µM in experiment [5]; greater than 100 µM in experiment [6]. Also, the TGI in experiment [7], in experiment [8] and in experiment [9] was greater than 100 µM throughout.

Consider `CCOC(=O)c1c(C)n(CCN2CCN(C)CC2)c2ccc(OC)cc12`, for which the TGI in experiment [1] is 46.3 µM; in [2], 72 µM; in experiment [3], greater than 100 µM; in experiment [4], 30.8 µM; in experiment [5], 30.7 µM; in [6], 87.1 µM. The TGI in experiment [7], in experiment [8] and in [9] was greater than 100 µM throughout.

Take `C=C1C(=O)O[C@H]2[C@@H](O)[C@H](C)CCC/C(C)=C/CC[C@@]3(C)O[C@@H]3C[C@@H]12`: the TGI in experiment [1] stood at 14.7 µM; in [2] it was 3.34 µM; in experiment [3] it was 19.1 µM; in experiment [4], 28.1 µM; in experiment [5], 26 µM; in experiment [6], 11.8 µM. Further, the TGI stood at 37.5 µM in experiment [7], 3.95 µM in [8] and 34.9 µM in experiment [9].

For the compound `COc1ccc(/C=C(\C#N)c2nc(-c3cc4ccccc4oc3=O)cs2)cc1`, the TGI in experiment [1] is greater than 100 µM; in experiment [2], greater than 100 µM; in [3], greater than 100 µM; in experiment [4], greater than 100 µM; in experiment [5], greater than 100 µM; in experiment [6] it was 54.9 µM. In addition, the results for the TGI in experiment [7], in experiment [8] and in [9] were 34.9 µM, 65.6 µM and 55.9 µM, respectively.

As to `CC[N+]1(C)CCC(O)(/C=C/c2ccc(Cl)c(Cl)c2)C(C(=O)/C=C/c2ccc(Cl)c(Cl)c2)C1` (stereo not given), the TGI in experiment [1] is greater than 22.7 µM; in experiment [2], 14.6 µM; in [3] it was 6.87 µM; in experiment [4] it was 7.68 µM; in [5] it was 3.96 µM; in experiment [6], 9.13 µM. Further, the values for the TGI in experiment [7], in experiment [8] and in experiment [9] were 17.3 µM, 6.58 µM and 13.9 µM, respectively.

Regarding `CCOc1cc(C=Nc2ccc(Oc3ccc(Cl)cc3)c(Cl)c2)ccc1O`, the TGI in experiment [1] was 57 µM; in [2], 90.2 µM; in experiment [3], greater than 100 µM; in experiment [4], 52.9 µM; in [5], 43.4 µM; in experiment [6] it was 54.7 µM. Besides, the TGI in [7] was 62.1 µM; in experiment [8], greater than 100 µM; in experiment [9] it was 38.8 µM.

Take `C=C(Cl)C(=C)CCC(Cl)C(C)(C)Cl` (stereo not given): the TGI in experiment [1], in experiment [2], in experiment [3], in [4], in experiment [5] and in experiment [6] was greater than 100 µM each time. Also, the TGI in [7], in experiment [8] and in experiment [9] was greater than 100 µM each time.

On to `O=[N+]([O-])c1ccc(-c2nc3ccccc3o2)cc1`, for which the TGI in experiment [1], in [2], in [3], in [4], in experiment [5] and in experiment [6] was greater than 100 µM in each case. For the same compound, the TGI in experiment [7], in experiment [8] and in experiment [9] was greater than 100 µM each time.

`O=C(NC(Cc1c[nH]c2ccccc12)C(=O)O)/C(=C/c1ccccc1)NC(=O)c1ccccc1` (stereo not given): the TGI in [1], in [2], in experiment [3], in experiment [4], in [5] and in experiment [6] was greater than 100 µM each time. The TGI in experiment [7], in [8] and in experiment [9] was greater than 100 µM throughout.

As for `C=C1C[C@]23CC[C@@H]4C(CO)(CO)CC(=O)C[C@]4(C)[C@@H]2C(O)C[C@H]1C3` (stereo not given in full), the TGI in [1], in experiment [2], in [3], in [5], in [6] and in experiment [7] was greater than 100 µM throughout. The TGI in experiment [8] and in experiment [9] was greater than 100 µM in each case.
